Reference: ChEMBL document CHEMBL1152766, “Bioactive constituents from the leaves of Clinacanthus nutans Lindau” (Bioorg Med Chem, 2009)

Columns and labels:
Human alphaherpesvirus 1 [1] = assay: Antiviral activity against 1000 PFU/ml infectious dose of HSV1 strain F infected in african green monkey Vero cells assessed as inhibition of virus in post-viral entry step at 6.21 uM after 72 hrs by plaque reduction assay; type: functional; design: scale not given: the % may be the effect or the level left
[2] = Cytotoxicity against african green monkey Vero cells after 72 hrs; type: cell-based; settings: chlorocebus sabaeus, read-out: MNCC
Human alphaherpesvirus 1 [3] = assay: Antiviral activity against 1000 PFU/ml infectious dose of HSV1 strain F infected in african green monkey Vero cells after 72 hrs by plaque reduction assay; type: functional, organism-based; settings: Human alphaherpesvirus 1, strain F
Human alphaherpesvirus 1 [4] = assay: Antiviral activity against 1000 PFU/ml infectious dose of HSV1 strain F infected in african green monkey Vero cells assessed as inhibition of virus in pre-viral entry step at 6.21 uM after 72 hrs by plaque reduction assay; type: functional; design: scale not given: the % may be the effect or the level left
Human alphaherpesvirus 1 [5] = assay: Antiviral activity against 1000 PFU/ml infectious dose of HSV1 strain F infected in african green monkey Vero cells assessed as inhibition of virus in pre-viral entry step at 5.89 uM after 72 hrs by plaque reduction assay; type: functional; design: scale not given: the % may be the effect or the level left
Human alphaherpesvirus 1 [6] = assay: Antiviral activity against 1000 PFU/ml infectious dose of HSV1 strain F infected in african green monkey Vero cells assessed as inhibition of virus in post-viral entry step at 5.89 uM after 72 hrs by plaque reduction assay; type: functional; design: scale not given: the % may be the effect or the level left

Compound	Activity (Human alphaherpesvirus 1 [1]) [%]	MNTC at 72 h [2] [µM]	IC50 (Human alphaherpesvirus 1 [3]) [nM]	Activity (Human alphaherpesvirus 1 [4]) [%]	Activity (Human alphaherpesvirus 1 [5]) [%]	Activity (Human alphaherpesvirus 1 [6]) [%]
C=Cc1c(C)c2cc3nc(c4c5[nH]c(cc6nc(cc1[nH]2)C(C)=C6CC)c(C)c5C(=O)[C@]4(O)C(=O)OC)[C@@H](CCC(=O)O/C=C(\C)CCCC(C)CCCC(C)CCCC(C)C)[C@@H]3C (some centres not stated)	30	6.21	3.11	100	–	–
C=Cc1c(C)c2cc3nc(c4c5[nH]c(cc6nc(cc1[nH]2)C(C)=C6CC)c(C)c5C(=O)[C@@]4(O)C(=O)OC)[C@@H](CCC(=O)O/C=C(\C)CCCC(C)CCCC(C)CCCC(C)C)[C@@H]3C (some centres not stated)	30	6.21	3.11	100	–	–
C=Cc1c(C)c2cc3nc(c4c5[nH]c(cc6nc(cc1[nH]2)C(C=O)=C6CC)c(C)c5C(=O)[C@@]4(O)C(=O)OC)[C@@H](CCC(=O)O/C=C(\C)CCCC(C)CCCC(C)CCCC(C)C)[C@@H]3C (some centres not stated) [13(2)-HYDROXY-(13(2)-R)-PHAEOPHYTIN B]	–	5.89	1.96	–	100	30
